Drawing on patent publication US20250197403A1, “HETEROARYL COMPOUNDS FOR TREATMENT OF COMPLEMENT FACTOR D MEDIATED DISORDERS” (Achillion Pharmaceuticals, Inc., priority 2020, published 2025), this text covers IC50 for 19 molecules.

The target of this experiment is Human Factor D (Homo sapiens (Human), UniProt P00746). The experiment is described as follows: Human Factor D Assay. The class given is biochemical. The following applies: Human Factor D 80 nM, substrate Z-L-Lys-SBzl, assay according to Example 3. How it is done:
The assay according to Example 3 was used to determine the IC50's of the compounds. Other standard factor D inhibition assays are also available.
Human Factor D (purified from human serum, Complement Technology, Inc.) at 80 nM final concentration is incubated with test compound at various concentrations for 5 min at room temperature in 50 mM Tris, 1M NaCl, pH 7.5. A synthetic substrate Z-L-Lys-SBzl and DTNB (Ellman's reagent) are added to final concentrations of 100 μM each. Absorbance at 405 nm (A405) is recorded at 30 second intervals for 30 min using a microplate spectrophotometer. IC50 values are calculated by nonlinear regression of complement Factor D reaction rates as a function of test compound concentration.

The term IC50 denotes the concentration at which inhibition is half-maximal.

Chain of Human Factor D (P00746 26-253): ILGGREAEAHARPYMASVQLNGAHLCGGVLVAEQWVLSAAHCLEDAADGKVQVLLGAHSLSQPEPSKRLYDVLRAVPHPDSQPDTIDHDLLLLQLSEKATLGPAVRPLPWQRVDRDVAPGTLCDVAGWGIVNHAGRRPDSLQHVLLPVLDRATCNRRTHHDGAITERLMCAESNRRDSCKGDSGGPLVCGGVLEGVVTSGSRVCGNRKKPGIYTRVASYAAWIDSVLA

In turn, `COCc1ccc(C(F)(F)F)nc1NC(=O)[C@@H]1C[C@@]2(C)C[C@H]2N1C(=O)Cn1cc(C(C)=O)c2cc(-c3cnc4cc(C)nn4c3)c(F)c(C)c21` [Compound 2, (1R,3S,5R)-2-(2-(3-acetyl-6-fluoro-7-methyl-5-(2-methylpyrazolo[1,5-a]-pyrimidin-6-yl)-1H-indol-1-yl)acetyl)-N-(3-(meth-oxymethyl)-6-(trifluoro-methyl)pyridin-2-yl)-5-methyl-2-azabicyclo[3.1.0] hexane-3-carboxamide] displayed an IC50 of under 1000 nM.
In turn, `CC(=O)c1cn(CC(=O)N2[C@H](C(=O)Nc3nc(C(F)(F)F)ccc3Cl)C[C@@]3(C)C[C@@H]23)c2c(C)cc(-c3ccc4nc(C)nn4c3)cc12` [Compound 3, (1R,3S,5R)-2-(2-(3-acetyl-7-methyl-5-(2-methyl-[1,2,4]triazolo[1,5-a]pyr-idin-6-yl)-1H-indol-1-yl)-acetyl)-N-(3-chloro-6-(tri-fluoromethyl)pyridin-2-yl)-5-methyl-2-azabicyclo-[3.1.0]hexane-3-carbox-amide] registered an IC50 of under 1000 nM.
Turning to `COCc1ccc(C(F)(F)F)nc1NC(=O)[C@@H]1[C@@H]2C[C@@H]2CN1C(=O)Cn1cc(C(C)=O)c2cc(-c3ccc4nc(C)nn4c3)cc(C)c21` [Compound 4, (1R,2S,5S)-3-(2-(3-acetyl-7-methyl-5-(2-methyl-[1,2,4]triazolo[1,5-a]pyr-idin-6-yl)-1H-indol-1-yl)-acetyl)-N-(3-(methoxy-methyl)-6-(trifluorometh-yl)pyridin-2-yl)-3-aza-bicyclo[3.1.0]hexane-2-carboxamide], the IC50 was under 1000 nM.
The same measure for `COCc1ccc(C(F)(F)F)nc1NC(=O)[C@@H]1C[C@@]2(C)C[C@H]2N1C(=O)Cn1cc(C(C)=O)c2cc(-c3ccc4nc(C)nn4c3)c(F)c(C)c21` [Compound 5, (1R,3S,5R)-2-(2-(3-acetyl-6-fluoro-7-methyl-5-(2-methyl-[1,2,4]triazolo[1,5-a]pyridin-6-yl)-1H-indol-1-yl)acetyl)-N-(3-(meth-oxymethyl)-6-(trifluoro-methyl)pyridin-2-yl)-5-methyl-2-azabicyclo[3.1.0] hexane-3-carboxamide]: under 1000 nM; for `CC(=O)c1cn(CC(=O)N2C[C@H]3C[C@H]3[C@H]2C(=O)Nc2nc(C(F)(F)F)ccc2Cl)c2c(C)cc(-c3cnc4cc(C)nn4c3)cc12` [Compound 6, (1R,2S,5S)-3-(2-(3-acetyl-7-methyl-5-(2-methylpyr-azolo[1,5-a]pyrimidin-6-yl)-1H-indol-1-yl)acetyl)-N-(3-chloro-6-(trifluoro-methyl)pyridin-2-yl)-3-azabicyclo[3.1.0]hexane-2-carboxamide]: under 1000 nM; for `COCc1ccc(C(F)(F)F)nc1NC(=O)[C@@H]1[C@@H]2C[C@@H]2CN1C(=O)Cn1cc(C(C)=O)c2cc(-c3cnc4cc(C)nn4c3)cc(C)c21` [Compound 7, (1R,2S,5S)-3-(2-(3-acetyl-7-methyl-5-(2-methylpyr-azolo[1,5-a]pyrimidin-6-yl)-1H-indol-1-yl)acetyl)-N-(3-(methoxymethyl)-6-(trifluoromethyl)pyridin-2-yl)-3-azabicyclo[3.1.0] hexane-2-carboxamide]: under 1000 nM.
Take `CC(=O)c1cn(CC(=O)N2[C@H](C(=O)Nc3nc(Br)ccc3C3CC3)C[C@@]3(C)C[C@@H]23)c2c(C)cc(-c3cnc4cc(C)nn4c3)cc12` [Compound 8, (1R,3S,5R)-2-(2-(3-acetyl-7-methyl-5-(2-methylpyr-azolo[1,5-a]pyrimidin-6-yl)-1H-indol-1-yl)acetyl)-N-(6-bromo-3-cycloprop-ylpyridin-2-yl)-5-methyl-2-azabicyclo[3.1.0]hexane-3-carboxamide]: the IC50 was over 10000 nM.
The same measure for `CC(=O)c1cn(CC(=O)N2C[C@@](F)(CF)C[C@H]2C(=O)Nc2nc(C(F)(F)F)ccc2C)c2c(C)cc(-c3cnc4cc(C)nn4c3)cc12` [Compound 10, (2S,4R)-1-(2-(3-acetyl-7-methyl-5-(2-methylpyr-azolo[1,5-a]pyrimidin-6-yl)-1H-indol-1-yl)acetyl)-4-fluoro-4-(fluoromethyl)-N-(3-methyl-6-(trifluoro-methyl)pyridin-2-yl)pyr-rolidine-2-carboxamide]: under 1000 nM; for `CC(=O)c1cn(CC(=O)N2C[C@@](F)(CF)C[C@H]2C(=O)Nc2nc(C(F)(F)F)ccc2C)c2c(C)cc(-c3ccc4nc(C)nn4c3)cc12` [Compound 11, (2S,4R)-1-(2-(3-acetyl-7-methyl-5-(2-methyl-[1,2,4]triazolo[1,5-a]pyr-idin-6-yl)-1H-indol-1-yl)-acetyl)-4-fluoro-4-(fluoro-methyl)-N-(3-methyl-6-(trifluoromethyl)pyridin-2-yl)pyrrolidine-2-carbox-amide]: under 1000 nM.
Consider `CC(=O)c1cn(CC(=O)N2[C@H](C(=O)Nc3nc(C(F)(F)F)cc(F)c3C)C[C@@]3(C)C[C@@H]23)c2c(C)cc(-c3cnc4cc(C)nn4c3)cc12` [Compound 12, (1R,3S,5R)-2-(2-(3-acetyl-7-methyl-5-(2-methylpyr-azolo[1,5-a]pyrimidin-6-yl)-1H-indol-1-yl)acetyl)-N-(4-fluoro-3-methyl-6-(trifluoromethyl)pyridin-2-yl)-5-methyl-2-azabicyclo [3.1.0]hexane-3-carbox-amide], for which the IC50 was under 1000 nM.
For `CC(=O)c1cn(CC(=O)N2[C@H](C(=O)Nc3nc(C(F)(F)F)ccc3C)C[C@@]3(C)C[C@@H]23)c2c(C)cc(-c3cnc4cc(C#N)nn4c3)cc12` [Compound 13, (1R,3S,5R)-2-(2-(3-acetyl-5-(2-cyanopyrazolo[1,5-a]pyrimidin-6-yl)-7-methyl-1H-indol-1-yl)acetyl)-5-methyl-N-(3-methyl-6-(trifluoromethyl)pyridin-2-yl)-2-azabicyclo[3.1.0] hexane-3-carboxamide], the IC50 is under 1000 nM.
The same measure for `CC(=O)c1cn(CC(=O)N2[C@H](C(=O)Nc3nc(C(F)(F)F)ccc3C#N)C[C@@]3(C)C[C@@H]23)c2c(C)cc(-c3cnc4cc(C)nn4c3)cc12` [Compound 14, (1R,3S,5R)-2-(2-(3-acetyl-7-methyl-5-(2-methylpyr-azolo[1,5-a]pyrimidin-6-yl)-1H-indol-1-yl)acetyl)-N-(3-cyano-6-(trifluoro-methyl)pyridin-2-yl)-5-methyl-2-azabicyclo[3.1.0] hexane-3-carboxamide]: under 1000 nM; for `CC(=O)c1cn(CC(=O)N2[C@H](C(=O)Nc3nc(Br)cc(F)c3C)C[C@@]3(C)C[C@@H]23)c2c(C)cc(-c3cnc(C)nc3)cc12` [Compound 15, (1R,3S,5R)-2-(2-(3-acetyl-7-methyl-5-(2-methylpyr-imidin-5-yl)-1H-indol-1-yl)acetyl)-N-(6-bromo-4-fluoro-3-methylpyridin-2-yl)-5-methyl-2-azabicyclo [3.1.0]hexane-3-carbox-amide]: under 1000 nM.
The same measure for `CC(=O)c1cn(CC(=O)N2[C@H](C(=O)Nc3nc(C(F)(F)F)c(F)cc3C)C[C@@]3(C)C[C@@H]23)c2c(C)cc(-c3cnc4cc(C)nn4c3)cc12` [Compound 16, (1R,3S,5R)-2-(2-(3-acetyl-7-methyl-5-(2-methylpyr-azolo[1,5-a]pyrimidin-6-yl)-1H-indol-1-yl)acetyl)-N-(5-fluoro-3-methyl-6-(trifluoromethyl)pyridin-2-yl)-5-methyl-2-azabicyclo [3.1.0]hexane-3-carbox-amide]: under 1000 nM; for `CC(=O)c1nn(CC(=O)N2[C@H](C(=O)Nc3nc(Br)c(F)cc3C)C[C@@]3(C)C[C@@H]23)c2c(C)cc(-c3cnc([C@H](C)O)nc3)cc12` [Compound 17, (1R,3S,5R)-2-(2-(3-acetyl-5-(2-((S)-1-hydroxyethyl)-pyrimidin-5-yl)-7-methyl-1H-indazol-1-yl)acetyl)-N-(6-bromo-5-fluoro-3-meth-ylpyridin-2-yl)-5-methyl-2-azabicyclo[3.1.0]hexane-3-carboxamide]: under 1000 nM; for `CC(=O)c1nn(CC(=O)N2[C@H](C(=O)Nc3nc(Br)c(F)cc3C)C[C@@]3(C)C[C@@H]23)c2c(C)cc(-c3cnc([C@@H](C)O)nc3)cc12` [Compound 18, (1R,3S,5R)-2-(2-(3-acetyl-5-(2-((R)-1-hydroxyethyl)-pyrimidin-5-yl)-7-methyl-1H-indazol-1-yl)acetyl)-N-(6-bromo-5-fluoro-3-meth-ylpyridin-2-yl)-5-methyl-2-azabicyclo[3.1.0]hexane-3-carboxamide]: under 1000 nM.
Molecule `CC(=O)c1cn(CC(=O)N2[C@H](C(=O)Nc3nc(C(F)(F)F)c(F)cc3C)C[C@@]3(C)C[C@@H]23)c2c(C)cc(-c3ccc4nc(C)nn4c3)cc12` [Compound 19, (1R,3S,5R)-2-(2-(3-acetyl-7-methyl-5-(2-methyl-[1,2,4]triazolo[1,5-a]pyr-idin-6-yl)-1H-indol-1-yl)-acetyl)-N-(5-fluoro-3-methyl-6-(trifluorometh-yl)pyridin-2-yl)-5-methyl-2-azabicyclo[3.1.0]hexane-3-carboxamide] had an IC50 of under 1000 nM.
Then `CC(=O)c1cn(CC(=O)N2[C@H](C(=O)Nc3nc(Br)ccc3C)C[C@@]3(C)C[C@@H]23)c2cc3c(cc12)NC1(COC1)CO3` [Compound 20, (1R,3S,5R)-2-(2-(8′-acetyl-1′H-spiro[oxetane-3,2′-[1,4]oxazino[3,2-f]indol]-6′(3′H)-yl)acetyl)-N-(6-bromo-3-methylpyridin-2-yl)-5-methyl-2-azabicyclo [3.1.0]hexane-3-carbox-amide], with under 1000 nM; and `CC(=O)c1cn(CC(=O)N2[C@H](C(=O)Nc3nc(Br)ccc3Cl)C[C@@]3(C)C[C@@H]23)c2c(C)nc(-c3cnc(C)nc3)cc12` [Compound 21, (1R,3S,5R)-2-(2-(3-acetyl-7-methyl-5-(2-methylpyr-imidin-5-yl)-1H-pyrrolo [2,3-c]pyridin-1-yl)acetyl)-N-(6-bromo-3-chloropyr-idin-2-yl)-5-methyl-2-aza-bicyclo[3.1.0]hexane-3-carboxamide], with under 1000 nM.
